From US20220194997A1, “SUMO PEPTIDES FOR TREATING NEURODEGENERATIVE DISEASES” (The Chinese University of Hong Kong, priority 2019, published 2022)
One block for each compound: values may come before it. Where no end group is shown, it is not given here.

Assays:
[1] = target: T1, α-synuclein (Homo sapiens, UniProt P37840); experiment: Microscale thermophoresis (MST) binding
T1 construct: made in house; host or cells: Escherichia coli BL21(DE3), pET-28a (NcoI/XhoI)
Protocol: The labelling reaction was performed according to the manufacturer's instructions. Unreacted dye was removed with the dye removal column supplied in the Protein Labelling Kit RED-NHS (NanoTemper Technologies) or desalting column (Bio-Rad). […] The labelled targets were adjusted to appropriate concentration for detection. The ligands were dissolved in reaction buffer and a series of 16 1:1 dilutions was prepared. For the measurement, each ligand dilution was mixed with one volume of labelled protein target. After 10 min incubation, the samples were loaded into standard or premium Monolith NT.115 Capillaries (NanoTemper Technologies). MST was measured using a Monolith NT.115 instrument (NanoTemper Technologies) at an ambient temperature of 25° C. Instrument parameters were adjusted to 20% LED power and medium MST power. Data of three independently pipetted measurements were analyzed (MO.Affinity Analysis software version 2.1.3, NanoTemper Technologies) using the signal from an MST-on time of 5 s.
Unreacted dye was removed with desalting column (2K MWCO, Bio-Rad). The purity was monitored by measuring the ratio of protein to dye after the clean-up procedure. […]

[2] = target: T1, α-synuclein; experiment: Fibrillation (Thioflavin T) assay of SDS-induced α-synuclein aggregation; assay type: biochemical
Protocol: The reaction contained the mixture of 70 μM α-synuclein and different concentrations of SUMO1 variants, 40 μM Thioflavin T (ThT) (Sigma-Aldrich), 0.4 mM SDS in reaction buffer (20 mM HEPES, 150 mM NaCl, pH 7.4). Reactions were performed in quadruplicate in a black clear-bottomed 96-well plate (Nunc, Thermo Fisher Scientific) with a final volume of 150 μL. The plate was sealed with sealing membrane (Thermo Fisher Scientific) and loaded into an Infinite M1000 plate reader (Tecan), incubated at 37° C. without agitation. The fluorescence was detected at 30 min intervals, with excitation at 450 nm and with emission at 485 nm. Protein samples were analyzed after fibrillation assay using size-exclusion chromatography on a Superdex 200 GL 5/150 column (3 ml, GE Healthcare) in reaction buffer.
Sodium dodecyl sulfate (SDS) was added to mimic membrane environments and serve as nucleation scaffold to stimulate α-synuclein aggregation (Giehm et al., 2010).
Thioflavin T (ThT) assay was performed as previously described^5 with minor modifications. […] The potential pre-formed aggregates in α-synuclein were removed by centrifugation at 15,000 rpm for 15 min and filtering through a 0.2 μm filter before the experiments. Reactions were performed in a black clear-bottomed 96-well plate (Nunc, Thermo Fisher Scientific) sealed with clear adhesive sealing sheet (Thermo Fisher Scientific) to avoid evaporation and loaded into an Infinite® M1000 plate reader (Tecan), incubated at 37° C. for 7 days without agitation. The fluorescence was recorded at 485 nm with excitation wavelength of 450 nm at the interval of 30 min.

[3] = system: SH-SY5Y cells; experiment: Cellular uptake of Alexa 488 labelled peptide, confocal microscopy; assay type: cell-based; details: 1 h and 24 h, time course
Protocol: SH-SY5Y cells were planted on 35 mm glass bottom confocal dishes and incubated overnight. After co-incubation with Alexa 488 labelled R8-SUMO1(31-55), cells were fixed with 4% paraformaldehyde for 15 min at room temperature at different time points and visualized by Leica TCS SP8 confocal microscope with 63X oil immersion objective.

[4] = system: α-synuclein (wild-type) transgenic Drosophila; experiment: Climbing assay after larval feeding; assay type: in vivo; details: larval feeding 60, 120 or 240 μM, pilot study
[5] = system: α-synuclein-A53T transgenic Drosophila; experiment: Climbing assay after larval feeding; assay type: in vivo; details: larval feeding 60, 120 or 240 μM, pilot study
Excerpt: (§1) The following fly strains were adopted in this study: gmr-GAL4 (RRID: BDSC_1104), elav-GAL4 (RRID: BDSC_458), UAS-α-synuclein-A30P (RRID: BDSC_8147), and UAS-α-synuclein-A53T (RRID: BDSC_8148). All strains were obtained from the Bloomington Drosophila Stock Center. To obtain PD model flies, virgin flies carrying the driver gmr-GAL4 or elav-GAL4 on X chromosome were crossed to males from UAS-α-synuclein-A30P/UAS-α-synuclein-A53T stocks. The progeny of these crosses was maintained on standard cornmeal medium supplemented with dry yeast in 25° C. incubator.
(§2) Climbing assay was performed according to previously described^10. Briefly, a group of 10 flies from each condition were placed in individual plastic vial, and gently tapped to the bottom of the vail. The number of flies that could climb a height of 2 cm within 15 s was recorded. Each trial was repeated five times with 1 min recovery periods between each trials. Total 20 (10 males and 10 females) flies from each condition were tested for one genetic cross.

[6] = system: α-synuclein-A30P transgenic Drosophila; experiment: Climbing assay after larval feeding; assay type: in vivo; details: larval feeding 60, 120 or 240 μM, pilot study
Excerpt: as §1, §2

[7] = equimolar ratio (1:1), 70 μM α-synuclein, 37° C., 7 days

binding ability to α-synuclein compared with that of SUMO1(15-55) [1]: around 1/40 | inhibition of α-synuclein aggregation [2, 7]: much weaker inhibition effect
Compound: CC[C@H](C)[C@H](NC(=O)[C@H](Cc1ccc(O)cc1)NC(=O)[C@H](CCC(=O)O)NC(=O)CNC(=O)[C@H](CCC(=O)O)NC(=O)[C@H](CCCCN)NC(=O)[C@H](CCCCN)NC(=O)[C@@H](N)CC(=O)O)C(=O)N[C@@H](CCCCN)C(=O)N[C@@H](CC(C)C)C(=O)N[C@@H](CCCCN)C(=O)N[C@H](C(=O)N[C@H](C(=O)NCC(=O)N[C@@H](CCC(N)=O)C(=O)N[C@@H](CC(=O)O)C(=O)N[C@@H](CO)C(=O)N[C@@H](CO)C(=O)N[C@@H](CCC(=O)O)C(=O)N[C@H](C(=O)N[C@@H](Cc1c[nH]cn1)C(=O)N[C@@H](Cc1ccccc1)C(=O)N[C@@H](CCCCN)C(=O)N[C@H](C(=O)N[C@@H](CCCCN)C(=O)N[C@@H](CCSC)C(=O)N[C@H](C(=O)N[C@H](C(=O)N[C@@H](Cc1c[nH]cn1)C(=O)N[C@@H](CCC(=O)O)C(=O)N[C@@H](CCCCN)C(=O)N[C@@H](CCCCN)C(=O)N[C@@H](CCCNC(=N)N)C(=O)N[C@@H](CCCCN)C(=O)N[C@@H](CCC(=O)O)C(=O)N[C@@H](CO)C(=O)N[C@@H](Cc1ccc(O)cc1)C(=O)N[C@@H](CS)C(=O)N[C@@H](CCC(N)=O)C(=O)N[C@@H](CCCNC(=N)N)C(=O)N[C@@H](CCC(N)=O)C(=O)O)[C@@H](C)O)[C@@H](C)O)C(C)C)[C@@H](C)CC)[C@@H](C)CC)C(C)C [SUMO1(15-55) (L44E, L47R)]

inhibition of α-synuclein aggregation ([2]; ratio of 1:5 or 1:10 α-synuclein: SUMO peptide inhibitor): partial inhibition
Compound: His-SUMO1(31-55): SUMO1(31-55) with an N-terminal 10×His tag ({10xHis tag}-SSEIHFKVKMTTHLKKLKESYCQRQ; UniProt P63165 31-55, looked up, fragment)

Compound: RRRRRRRRSSEIHFKVKMTTHLKKLKESYCQRQ [R8-SUMO1(31-55)]
internalization into cells [3]: internalization into SH-SY5Y cells at a high efficiency

inhibition of α-synuclein aggregation [2, 7]: not effective
Compound: SUMO1(20-40): SUMO1 derived peptide, residues 20-40 (EYIKLKVIGQDSSEIHFKVKM; UniProt P63165 20-40, looked up, fragment)

Compound: SUMO1(31-55): residues 31-55 of human SUMO1, a beta sheet followed by an alpha-helix (SSEIHFKVKMTTHLKKLKESYCQRQ)
locomotor dysfunction (climbing) [4]: improved the locomotor dysfunction | locomotor dysfunction (climbing) [5]: improved the locomotor dysfunction | locomotor dysfunction (climbing) [6]: improved the locomotor dysfunction

inhibition of α-synuclein aggregation [2, 7]: suppressed | delay of the initiation of the aggregation ([2]; half molar ratio): 2 days
Compound: SUMO2(16-51): residues 16-51 of human SUMO2, identical sequence to SUMO3(15-50) (DHINLKVAGQDGSVVQFKIKRHTPLSKLMKAYCERQ; UniProt P61956 16-51, looked up, fragment)
